Laboratory results as given in PubChem BioAssay (NCI).
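Growth conditions: 96-well plates. Treatment: test compound, 48 hours, 5 concentrations. Analysis: linear interpolation between bracketing concentrations; unreached endpoints set to highest concentration. Here, GI50 denotes the concentration required for 50% inhibition of growth. TGI: concentration producing complete growth inhibition.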

Key:
Test in all cases: inhibition of tumour cell growth, NCI panel, 48 h
LOX IMVI melanoma = system: LOX IMVI melanoma
HCT-15 colon = system: HCT-15 colon
NCI-H23 lung = system: NCI-H23 lung
SK-MEL-28 melanoma = system: SK-MEL-28 melanoma
ACHN renal = system: ACHN renal
A498 renal = system: A498 renal
IGROV1 ovarian = system: IGROV1 ovarian
786-0 renal = system: 786-0 renal
SW-620 colon = system: SW-620 colon
HL-60(TB) leukemia = system: HL-60(TB) leukemia

| Structure (SMILES) | GI50 (LOX IMVI melanoma) | TGI (LOX IMVI melanoma) | GI50 (HCT-15 colon) | TGI (HCT-15 colon) | GI50 (NCI-H23 lung) | TGI (NCI-H23 lung) | GI50 (SK-MEL-28 melanoma) | TGI (SK-MEL-28 melanoma) | GI50 (ACHN renal) | TGI (ACHN renal) | GI50 (A498 renal) | TGI (A498 renal) | GI50 (IGROV1 ovarian) | TGI (IGROV1 ovarian) | GI50 (786-0 renal) | TGI (786-0 renal) | GI50 (SW-620 colon) | TGI (SW-620 colon) | TGI (HL-60(TB) leukemia) | GI50 (HL-60(TB) leukemia) |
| --- | --- | --- | --- | --- | --- | --- | --- | --- | --- | --- | --- | --- | --- | --- | --- | --- | --- | --- | --- | --- |
| ClCc1ccc(Cn2cnc3nc(Cl)nc(Cl)c32)cc1 | 0.487 µM | 1.23 µM | 0.481 µM | 1.03 µM | 1.84 µM | 3.65 µM | 1.86 µM | 4 µM | 0.523 µM | 0.953 µM | 4.36 µM | 8.48 µM | 1.37 µM | 2.72 µM | 0.417 µM | 0.89 µM | 1.47 µM | 3.28 µM | – | – |
| NC(=O)NC(=O)C1CCC(=O)N1S(=O)(=O)c1ccc(Cl)cc1 (stereo unspecified) | – | – | – | > 100 µM | – | > 100 µM | – | > 100 µM | – | > 100 µM | – | – | – | > 100 µM | – | > 100 µM | – | > 100 µM | > 100 µM | – |
| COc1cc2c(cc1OCCCN1CCN(CCCn3c4ccccc4c4ccccc43)CC1)N=C[C@@H]1CCCN1C2=O | 0.0937 µM | 0.426 µM | 0.623 µM | 2.15 µM | 0.122 µM | 0.599 µM | 0.0516 µM | 0.151 µM | 0.43 µM | 1.27 µM | 0.158 µM | 0.35 µM | – | – | 0.28 µM | 1.01 µM | 0.0254 µM | 0.141 µM | – | 0.0249 µM |
| O=[N+]([O-])C1(CO)COC(CCc2ccccc2)OC1 (stereo unspecified) | – | > 100 µM | – | > 100 µM | – | > 100 µM | – | > 100 µM | – | > 100 µM | – | – | – | > 100 µM | – | > 100 µM | – | > 100 µM | > 100 µM | – |
| NC1=NN(c2ccccc2)C(=O)C1/C(=N\NC(=O)c1cc2ccccc2cc1O)C(=O)Nc1ccc(Cl)cc1 (stereo unspecified) | – | – | – | > 100 µM | – | 77.3 µM | – | > 100 µM | – | > 100 µM | – | 98.1 µM | – | 80.9 µM | – | > 100 µM | – | > 100 µM | 14.7 µM | – |
| COC(=O)C(NC(=O)c1ccccc1)c1ccc(OC)c(I)c1 (stereo unspecified) | 46.9 µM | > 100 µM | 35.5 µM | > 100 µM | – | – | 76.4 µM | > 100 µM | 63.8 µM | > 100 µM | > 100 µM | > 100 µM | 53.2 µM | > 100 µM | > 100 µM | > 100 µM | > 100 µM | > 100 µM | > 100 µM | 41.6 µM |
| O=C1C(=O)c2c(ccc3ccccc23)-c2ccccc21 | 1.38 µM | 3.93 µM | 1.02 µM | 6.43 µM | 1.76 µM | 4.63 µM | 1.73 µM | 3.67 µM | 2.74 µM | > 100 µM | 10.4 µM | 26 µM | – | – | 3.13 µM | > 100 µM | 1.96 µM | 4.23 µM | 5.85 µM | 2.83 µM |
| O=[N+]([O-])c1cccc(C2=NOC3CCCC23)c1 (stereo unspecified) | – | – | – | > 100 µM | – | > 100 µM | – | > 100 µM | – | > 100 µM | – | > 100 µM | – | > 100 µM | – | > 100 µM | – | > 100 µM | > 100 µM | – |
